Results from patent US8771611B2, “System and methods of log-scale concentration gradients” (Auburn University, priority 2011, dated 2014).
Like-named read-outs stand apart in the source and are kept apart here.

Assays:
[1] = target: matrix metalloproteases-9 (MMP-9) (Homo sapiens, UniProt P14780); test: on-chip (microfluidic chip) logistic dose response of MMP-9 inhibitors, fluorogenic MMP substrate III; assay type: biochemical; details: for deviation in the IC50 values between on-chip and off-chip experiment: comparison on-chip vs off-chip; for IC50: on-chip, 22.15 μM substrate, 5 nM enzyme, inhibitor range 0.063 nM~250 nM, four parameter logistic fit, read-out: IC50 (on-chip, from dose response plots)
Text: Therefore, a concentration range of 0 to 1000×, in logarithmic scale, is able to be generated in a single experiment.
To determine the kinetic parameters, KM and kcat, the initial velocities of the individual reactions are able to be curve-fitted with the Michaelis-Menten equation using the enzyme kinetics module of Sigmaplot software (Systat software Inc.). For IC50 values with standard error, and 95% confidence interval, the four parameter nonlinear-logistic-regression model available to the inhibition data are curve-fitted. The four parameter model is of the form as shown in the equation (1) below.
[formula] Where, IC50 refers to median point of the concentration-response plot; [I] represents the concentration of inhibitor; h is the Hill coefficient or Hill slope, which means the steepness of dose-response plot; %I designates percentage inhibiting potency, including minimum and maximum.
Therefore, by introducing the three concentrations of inhibitor and buffer, meaningful logarithmic concentrations for dose response are generated such as 0, 1, 2.5, 5, 7.5, 10, 25, 50, 75, 100, 250, 500, 750 and 1000× by the device disclosed herein in semi-direct dilution.
An inhibitor concentration range of 0.063 nM˜250 nM (1:4000) is created on the chip in the 14 reactors. Note that, all the 14 reactors are used considering the requirement of a wider concentration range of inhibitors (FIG. 2D), 22.15 μM of substrate and 5 nM of enzyme are used, respectively.
The substrate QXLTM520-Pro-Leu-Gly-Cys-(Me)-His-Ala-D-Arg-Lys-(5-carboxy-fluorescein)-NH2 (AnaSpec Inc), internally quenched peptide matrix of matrix metalloproteinases-9 (MMP-9) is used for the enzyme reaction. This substrate releases fluorescent signals through dissociation of the quencher (QXLTM520) and carboxyfluorescein (FAM), fluorophore, via proteolytic cleavage by enzymatic reaction. […] For establishing a standard curve, reference dye, FAM-Pro-Leu-OH is used. The excitation and emission wavelengths for FAM are 480 nm and 520 nm, respectively. According to the enzyme reaction types, 50 nM, 10 nM, and 5 nM of MMP-9 are separately dissolved into the reaction buffer (TCNBT; 50 mM Tris, 10 mM CaCl2, 150 mM NaCl, 0.05% Brij-35, 0.05% Tween-20 and 0.1% BSA at pH 7.5). For the substrate of MMP, a stock solution is prepared as 100 μM in TCNBT buffer. […] Prepared reagents are stored at −20 ° C. until dilution with TCNBT buffer for experiment.

MMP-9 enzyme [2] = target: T1, MMP-9 enzyme (Homo sapiens, UniProt P14780); test: off-chip experiment, IC50 of MMP-9 inhibitors; assay type: biochemical; details: read-out: IC50 from the off-chip experiment
Text: These deviations in the values of IC50 are acceptable, considering enzyme as a biological sample with variable properties.

MMP-9 enzyme [3] = target: T1, MMP-9 enzyme; details: from some literature; read-out: reported IC50 values from literature; cited from earlier work

Sequence of matrix metalloproteases-9 (MMP-9) (P14780 94-707): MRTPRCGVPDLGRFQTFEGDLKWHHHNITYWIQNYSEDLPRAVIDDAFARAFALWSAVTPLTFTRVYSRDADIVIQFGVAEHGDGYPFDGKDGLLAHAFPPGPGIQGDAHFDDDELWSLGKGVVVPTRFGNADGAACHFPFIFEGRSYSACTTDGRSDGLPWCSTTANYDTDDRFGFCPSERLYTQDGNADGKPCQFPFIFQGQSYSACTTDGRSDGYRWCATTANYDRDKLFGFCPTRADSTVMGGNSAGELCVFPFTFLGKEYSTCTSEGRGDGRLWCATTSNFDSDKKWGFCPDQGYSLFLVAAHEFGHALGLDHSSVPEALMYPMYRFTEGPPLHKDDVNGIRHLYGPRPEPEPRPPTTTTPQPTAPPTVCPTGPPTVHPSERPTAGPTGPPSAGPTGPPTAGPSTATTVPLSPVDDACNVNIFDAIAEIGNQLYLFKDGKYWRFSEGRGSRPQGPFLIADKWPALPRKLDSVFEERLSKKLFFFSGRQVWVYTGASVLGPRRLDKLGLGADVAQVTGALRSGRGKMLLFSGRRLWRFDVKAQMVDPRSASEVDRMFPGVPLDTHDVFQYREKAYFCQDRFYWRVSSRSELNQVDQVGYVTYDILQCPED
T1 sequence (P14780 94-707): as above

SMILES | deviation in the IC50 values between on-chip and off-chip experiment [1] [%] | IC50 [1] [nM] | IC50 (MMP-9 enzyme [2]) [nM] | IC50 (MMP-9 enzyme [3]) [nM]
CC(C)(NS(=O)(=O)c1ccc(Oc2ccc(F)cc2)cc1)C(=O)NO [CP417474] | 20 | 11.9 ± 1 | 14.9 ± 0.9 | 
CNC(=O)[C@H](Cc1ccccc1)NC(=O)[C@H](CC(C)C)[C@H](CSc1cccs1)C(=O)NO [batimastat] |  | 4.1 ± 0.2 | 3.5 ± 0.3 | 3 to 4
CNC(=O)[C@@H](NC(=O)[C@H](CC(C)C)[C@H](O)C(=O)NO)C(C)(C)C [marimastat] | 3.2 |  |  | 
